Assay results taken from US12208080B2, “Compositions and methods for modulation of extracellular vesicle release and treatment of neurological disorders” (GEORGE MASON RESEARCH FOUNDATION, INC., priority 2018, dated 2025).

How the values were obtained:
[1] = test system: HIV-1 89.6 infected 3D neurospheres; assay: RT-qPCR of viral RNA transcripts in infected 3D neurospheres; format: cell-based
Description: FIGS. 22A-22D are graphs, gels, schematics, and images showing cannabidiol lowers viral transcripts in 3D neurospheres. A) Differential workflow of 3D neurospheres. B) Phase contrast microscopic images of three 3D neurospheres taken where scale bar=100 um. D) 3D neurospheres were treated±89.6 viral strain±cART (10 μM; Tenofovir, Emtricitabine, Lamuvidine, and Indinavir)±CBD titration (5 and 10 μM) and incubated for 7 days. RNA was isolated from the 3D neurospheres and supernatants, followed by RT-qPCR analysis for viral RNA transcripts TAR, TAR-gag, env. Student's t-test was used for statistical analysis, where *p-value≤0.05; **p-value≤0.01, ***p-value≤0.001.
Neural Progenitor Cells (NPCs; Cat: ACS-5003; ATCC) were grown using STEMdiff™ Neural Progenitor Medium (STEMCELL Technologies™) and differentiated into 3D neurospheres (1×10^5 cells/well) using DMEM:F12 (Cat: 30-2006; ATCC)+Neural Progenitor Cell Dopaminergic Differentiation Kit (Cat: ACS-3004; ATCC) for an incubation period of 14 d. Inverted microscopy using Zen imaging software (Zeiss) was used to develop phase contrast images. Neurospheres were infected with HIV-1 89.6 dual-tropic strain (MOI: 10) and 10 μL of Infectin™ (Virongy, LLC) with a total volume of 200 μL, followed by 48 h incubation period. Neurospheres were then gently washed with 1×PBS±treated twice with 10 μM cocktail (Lamivudine, Tenofovir, Emtricitabine, Indinavir)±treatment (every other day) with a titration of CBD (5 and 10 μM) for a seven-day incubation period. Neurospheres were lysed in 100 μL lysis buffer and total lysates were run on a 4-20% Tris-Glycine SDS-PAGE, followed by western blot assessment. For RT-qPCR analysis, RNA was isolated from neurospheres, followed by RT-qPCR analysis.
Next, the levels of intracellular viral RNA transcripts were assessed to determine the effects of CBD treatment on HIV-1 infected neurospheres. Prior to these experiments, the expression of relevant receptors in neurospheres were confirmed including Cannabinoid receptors CB1 and CB2, as well as the serotonin receptor 5-HT1A and the Vanilloid receptor which have been previously found to bind cannabinoids (FIG. 24). We then performed RT-qPCR analysis to quantify the expression of TAR, gag, and env.

[2] = test system: autophagy proteins (p62 and LC3) in U1 cells; assay: Autophagy proteins over time in U1 cells and their EVs (Western blot); format: cell-based
Description: FIGS. 18A-18B are gels showing CBD promotes autophagy turnover, resulting in a decrease in extracellular autophagosomal secretion. A) U1 cells (1×10^6) were treated±CBD (10 μM) for the following incubation periods: 0, 6, 24, and 48 hours. Cells were pelleted and lysed, exosomes from supernatants were enriched with NT80/82 beads overnight at 4° C. Samples were run through SDS-PAGE and western blotted for autophagy proteins (p62 and LC3), and Actin. B) U1 cells (1×10^6) were treated±10 μM CBD (every day), Rapamycin (50 nM), INK128 (50 nM), Bafilomycin A1 (50 nM), SB 203580 (20 μM), Wortmannin (2 nM) for a 5-day incubation period. Cells were pelleted and lysed, exosomes from supernatants were enriched using NT80/82 beads overnight at 4° C. Samples were run through SDS-PAGE and western blotted for autophagy proteins (p62, LC3, ATG12-ATG5, ATG12, Beclin-1), and Actin.
FIGS. 19A-19E are graphs showing normalized densitometry analysis of CBD treatment of HIV-1 infected monocytes over time and autophagy. Intracellular (A) p62, (B) LC3 I, and (C) LC3 II levels, and extracellular (D) p62, and (E) LC3 I levels were counted on the Western blot data from FIG. 5A through densitometry analysis, followed by normalization to Actin levels.
We have previously described a complex relationship between the intracellular autophagy pathway, secretory autophagy pathway, and EVs, where regulation of the autophagy pathway in infected cells can result in the blocking of viral protein degradation and, in turn, the export of viral products through EVs. Based on this, we next asked whether CBD had any effect on EV release by examining the secretory autophagy pathway. In order to evaluate the levels of intracellular autophagy proteins in HIV-1 infected cells, U1 cells were treated with CBD (10 μM) for 0, 6, 24, and 48 hours, followed by Western blot analysis for autophagosomal markers, p62 and LC3 I/II (FIG. 18A). […] In order to examine any alterations that CBD might have on secretory autophagy in HIV-1 infected monocytes, EVs were enriched from the supernatants using NT80/82 and analyzed by Western blot for changes in secreted autophagosome proteins. […] This is in line with numerous studies which have shown the HIV-1 viral proteins Tat and Nef to be involved in autophagy deregulation in infected cells.

[3] = CBD 10 μM with cART vs cART, 7 days, FIG. 22D lanes 3 vs 5

SMILES: C=C(C)[C@@H]1CCC(C)=C[C@H]1c1c(O)cc(CCCCC)cc1O [CBD, 2-[1R-3-methyl-6R-(1-methylethenyl)-2-cyclohexen-1-yl]-5-pentyl-1,3-benzenediol]
- TAR RNA [1, 3]: signification reduction
- env RNA [1, 3]: signification reduction
- gag RNA [1, 3]: signification reduction
- altering viral transcripts in neurospheres ([1]; lower concentrated CBD treatment (5 μM)): low efficacy
- LC3 I in secreted EVs ([2]; 10 μM, 6, 24, 48 hours vs untreated): overall lower level of LC3 I
- intracellular LC3 II ([2]; 10 μM, 6- and 24-hour vs controls): higher levels of LC3 II
- extracellular (EV) p62 ([2]; 10 μM, from the 6-hour time point onwards vs untreated): lower p62 levels
- intracellular p62 ([2]; 10 μM, starting at 24-hour, peaking at 48-hour, FIG. 18A): time dependent decrease
- intracellular LC3 I ([2]; 10 μM, up to 24 hours vs untreated): decrease in LC3 I levels
